Experimental data published in BindingDB's records for doi:10.1021/jm300847w (Amgen, 2012).

Experiment: Inhibition of PI3Kdelta in B-cells by proliferation assay

Row | Structure (SMILES) | IC50
1 | C[C@H](Nc1ncnc2nc[nH]c12)c1cc2cccc(Cl)c2nc1-c1cscn1 | 0.5 nM
2 | Cc1cccc2nc(-c3ccccc3Cl)c(Cn3nc(C#N)c4c(N)ncnc43)nc12 | 2 nM
